The record followed here is ChEMBL document CHEMBL4418910, “Methods for categorising cancer such as breast cancer” (2018).

Molecules are shown by their SMILES.

The target of test [1] is T1, Serine/threonine-protein kinase LMTK3 (Homo sapiens) (UniProt Q96Q04).
T1 sequence (whole entry): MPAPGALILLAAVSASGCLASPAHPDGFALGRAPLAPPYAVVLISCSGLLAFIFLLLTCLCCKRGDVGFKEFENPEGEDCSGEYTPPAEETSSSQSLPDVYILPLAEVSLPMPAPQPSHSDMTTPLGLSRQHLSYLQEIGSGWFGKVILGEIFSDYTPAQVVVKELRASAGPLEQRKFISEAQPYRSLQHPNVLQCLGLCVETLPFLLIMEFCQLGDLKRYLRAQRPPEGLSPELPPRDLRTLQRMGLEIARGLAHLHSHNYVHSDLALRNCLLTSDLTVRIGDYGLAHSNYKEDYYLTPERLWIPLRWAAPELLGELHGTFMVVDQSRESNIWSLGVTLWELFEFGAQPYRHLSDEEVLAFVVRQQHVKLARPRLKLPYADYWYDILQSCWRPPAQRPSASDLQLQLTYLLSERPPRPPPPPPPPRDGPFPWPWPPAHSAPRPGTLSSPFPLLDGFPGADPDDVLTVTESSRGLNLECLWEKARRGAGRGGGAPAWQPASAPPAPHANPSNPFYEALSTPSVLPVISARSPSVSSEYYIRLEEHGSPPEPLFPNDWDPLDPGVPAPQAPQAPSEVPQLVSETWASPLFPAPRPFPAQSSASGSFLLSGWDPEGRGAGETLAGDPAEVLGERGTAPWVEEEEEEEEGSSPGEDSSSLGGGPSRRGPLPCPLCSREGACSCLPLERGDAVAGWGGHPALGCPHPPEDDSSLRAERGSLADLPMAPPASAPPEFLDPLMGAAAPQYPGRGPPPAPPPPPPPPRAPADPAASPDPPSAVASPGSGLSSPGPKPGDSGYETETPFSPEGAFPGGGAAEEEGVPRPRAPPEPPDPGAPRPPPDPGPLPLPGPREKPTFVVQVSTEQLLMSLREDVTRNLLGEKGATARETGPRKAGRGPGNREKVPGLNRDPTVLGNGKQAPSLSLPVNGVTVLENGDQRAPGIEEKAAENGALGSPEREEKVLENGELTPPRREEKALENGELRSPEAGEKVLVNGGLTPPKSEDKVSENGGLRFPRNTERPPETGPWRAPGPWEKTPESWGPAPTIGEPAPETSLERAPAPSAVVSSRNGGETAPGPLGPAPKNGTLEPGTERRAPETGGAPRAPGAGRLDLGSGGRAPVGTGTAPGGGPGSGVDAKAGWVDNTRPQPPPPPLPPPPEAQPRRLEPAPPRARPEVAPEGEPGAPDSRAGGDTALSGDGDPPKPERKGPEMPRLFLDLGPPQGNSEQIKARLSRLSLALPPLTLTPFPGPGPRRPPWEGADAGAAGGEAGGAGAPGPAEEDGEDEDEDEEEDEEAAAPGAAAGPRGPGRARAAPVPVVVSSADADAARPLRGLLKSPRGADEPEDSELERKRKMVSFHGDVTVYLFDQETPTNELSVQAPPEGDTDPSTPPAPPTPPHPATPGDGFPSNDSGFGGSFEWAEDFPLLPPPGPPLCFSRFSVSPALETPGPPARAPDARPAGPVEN
Description: Inhibition of N-terminal GST tag LMTK3 kinase domain (133 to 415 amino acids) (unknown origin) expressed in insect cells incubated for 120 mins by […] fluorescent detection based CisBio KinEASE STK-S1 kit based assay relative to untreated control.

In test [2] the target is T2, Serine/threonine-protein kinase LMTK3 (Homo sapiens, UniProt Q96Q04).
T2 sequence (Q96Q04 whole entry): T1 sequence (whole entry)
Description: Inhibition of N-terminal GST tag LMTK3 kinase domain (133 to 415 amino acids) (unknown origin) expressed in insect cells incubated for 120 mins by […] fluorescent detection based CisBio KinEASE STK-S1 kit based assay.

For orientation: inhibition means the drop in the measured response relative to a control, in per cent. Turning to `CN[C@@H]1C[C@H]2O[C@@](C)([C@@H]1OC)n1c3ccccc3c3c4c(c5c6ccccc6n2c5c31)C(=O)NC4`, in test [1], the inhibition was 109%. As a reminder, the IC50 is the midpoint of a concentration-inhibition curve. A lower IC50 goes with higher potency. Take `CN(C)CCCn1cc(C2=C(c3c[nH]c4ccccc34)C(=O)NC2=O)c2ccccc21` [GF-109203]: the IC50 in test [2] was 0.132 nM. The inhibition in test [1] turned out to be 108%. On to `COC(=O)[C@@]1(O)C[C@H]2O[C@]1(C)n1c3ccccc3c3c4c(c5c6ccccc6n2c5c31)C(=O)NC4`, for which the inhibition in test [1] was 98.9%. For `CCCCCCOC(=O)[C@]1(O)C[C@H]2O[C@]1(C)n1c3ccccc3c3c4c(c5c6ccccc6n2c5c31)C(=O)NC4`, it took 0.117 nM to reach half-maximal inhibition in test [2] (IC50). The inhibition in test [1] came to 98.7%.
